Target: T1, mutated beta-galactosidase (p.R60H canine GLB1) in GM11473 fibroblasts (Canis lupus familiaris, UniProt Q9TRY9, R60H)
T1 construct: host or cells: GM11473 canine GM1 gangliosidosis fibroblasts
T1 sequence (Q9TRY9 30-668 R60H): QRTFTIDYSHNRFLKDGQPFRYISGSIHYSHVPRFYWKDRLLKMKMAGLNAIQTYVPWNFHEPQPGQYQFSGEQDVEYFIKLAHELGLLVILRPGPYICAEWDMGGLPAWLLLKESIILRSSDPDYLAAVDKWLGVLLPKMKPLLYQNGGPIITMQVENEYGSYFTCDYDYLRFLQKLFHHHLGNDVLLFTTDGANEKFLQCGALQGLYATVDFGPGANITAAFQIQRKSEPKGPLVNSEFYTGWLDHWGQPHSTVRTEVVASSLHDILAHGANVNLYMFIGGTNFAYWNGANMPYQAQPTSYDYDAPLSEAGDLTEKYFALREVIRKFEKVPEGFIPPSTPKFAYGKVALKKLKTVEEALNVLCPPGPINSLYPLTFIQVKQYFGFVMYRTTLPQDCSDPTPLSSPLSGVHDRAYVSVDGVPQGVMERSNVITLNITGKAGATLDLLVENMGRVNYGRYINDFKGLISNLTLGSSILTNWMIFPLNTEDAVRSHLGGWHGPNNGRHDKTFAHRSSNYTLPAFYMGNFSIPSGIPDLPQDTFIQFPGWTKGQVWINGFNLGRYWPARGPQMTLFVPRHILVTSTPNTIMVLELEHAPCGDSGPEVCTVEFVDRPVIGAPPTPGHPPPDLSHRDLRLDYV
Assay: Enhancement of β-galactosidase activity measured in GM1 fibroblasts (GM11473), 4-MU-β-D-galactopyranoside substrate
Assay type: cell-based
Design: key: Increase in comparison with non-treated of >2.5 fold is shown as A; Increase in comparison with non-treated of >1.7-2.5 fold is shown as B; Increase in comparison with non-treated of 1.2-1.7 fold is shown as C; D means that no increase compared with non-treated cells was detected in this method
Details: increase in β-galactosidase enzyme activity vs non-treated cells, concentrations between 6 and 50 μM, 4 days incubation
Method: The capacity of the Compounds of the Disclosure to enhance mutated beta-galactosidase activity levels in GM1 fibroblasts was assayed as follows.
Fibroblasts homozygous for a GM1 gangliosidosis missense mutation (GM11473) (canine fibroblasts homozygous for the GM1 gangliosidosis missense mutation p.R60H equivalent to human p.R59H mutation) were purchased from Coriell Institute for Medical Research (Camden, N.J., USA).
Fibroblasts were seeded at 4×10^4 cells per well in 12-well cell culture plates in Dulbecco's Modified Eagle's Media (DMEM) supplemented with 10% of fetal bovine serum (FBS), 1% penicillin/streptomycin (P/S) (Thermo Fisher Scientific, Waltham, Mass., USA) and incubated at 37° C., 5% CO2 overnight for cell attachment. Subsequently, cells were incubated in the absence or presence of the compounds at the desired concentration for 4 days. After incubation, cells were washed twice with phosphate-buffered saline (“PBS”) and detached using Trypsin-EDTA solution (Sigma Aldrich, St. Louis, Mo., USA) to prepare cell pellets. The pellets were stored at −80° C. until activity assays were performed.
β-Galactosidase activity in cell lysates was measured by using 4-Methylumbelliferyl-β-D-galactopyranoside substrate (Sigma Aldrich, St. Louis, Mo., USA). Briefly, lysates were resuspended in 200 μL of 0.9% NaCl containing 0.01% triton X-100 lysis buffer to promote membrane disruption. The cell suspension was sonicated and centrifuged to remove insoluble materials. Then, lysates were mixed with 4-MU-β-D-galactopyranoside in 100 mM citrate buffer (pH=4) and 100 mM NaCl for 60 min at 37° C. The reaction was terminated by adding 100 mM glycine-NaOH buffer (pH=10.7). The liberated 4-MU was measured on a GloMax Discover plate reader (Promega, Madison, Wis., USA) with excitation at 340 nm and emission at 460 nm. Protein quantification was determined using Pierce BCA Protein Assay Kit (Thermo Fisher Scientific, Waltham, Mass., USA). Measurements were interpolated in a 4-MU standard curve and normalized by protein quantity. Enzyme activities were expressed in treated cells as X-fold increase in comparison with non-treated cells (X=1 represents no enhancement).
The capacity of the Compounds of the Disclosure to produce an increase in β-galactosidase enzyme activity in canine GM1 fibroblasts bearing p.R60H canine GLB1 mutation at concentrations between 6 and 50 μM is denoted as follows: • Increase in comparison with non-treated of >2.5 fold is shown as A. • Increase in comparison with non-treated of >1.7-2.5 fold is shown as B. • Increase in comparison with non-treated of 1.2-1.7 fold is shown as C. • D means that no increase compared with non-treated cells was detected in this method. • ND means “not determined.”

Row | SMILES | Activity in GM11473 fibroblasts
1 | COc1ccc2c(c1)CCC(NC(=O)c1ccc(Nc3nccc4ccc(Cl)cc34)cn1)C2 (centres unmarked) [Example 40, 5-((7-Chloroisoquinolin-1-yl)amino)-N-(6-methoxy-1,2,3,4-tetrahydronaphthalen-2-yl)picolinamide] | B (Increase in comparison with non-treated of >1.7-2.5 fold is shown as B)
2 | O=S(=O)(NCC(c1cccnc1)N1CCCC1)c1cccc(Nc2nccc3ccc(Cl)cc23)c1 (centres unmarked) [Example 65, 3-((7-Chloroisoquinolin-1-yl)amino)-N-(2-(pyridin-3-yl)-2-(pyrrolidin-1-yl)ethyl)benzenesulfonamide] | C (Increase in comparison with non-treated of 1.2-1.7 fold is shown as C)
3 | COc1ccc2ccnc(Nc3ccnc(C(=O)NCc4ccccc4)c3)c2c1 [Example 26, N-benzyl-4-((7-methoxyisoquinolin-1-yl)amino)picolinamide] | C (Increase in comparison with non-treated of 1.2-1.7 fold is shown as C)
4 | COc1cccc(CNC(=O)c2ccc(Nc3nccc4ccc(Cl)cc34)cn2)c1 [Example 31, 5-((7-Chloroisoquinolin-1-yl)amino)-N-(3-methoxybenzyl)picolinamide] | B (Increase in comparison with non-treated of >1.7-2.5 fold is shown as B)
5 | O=S(=O)(NCC(c1ccccn1)N1CCOCC1)c1cccc(Nc2nccc3ccc(Cl)cc23)c1 (centres unmarked) [Example 66, 3-((7-Chloroisoquinolin-1-yl)amino)-N-(2-morpholino-2-(pyridin-2-yl)ethyl)benzenesulfonamide] | C (Increase in comparison with non-treated of 1.2-1.7 fold is shown as C)
6 | O=C(NCc1ccc2c(c1)CCO2)c1ccc(Nc2nccc3ccc(Cl)cc23)cn1 [Example 36, 5-((7-Chloroisoquinolin-1-yl)amino)-N-((2,3-dihydrobenzofuran-5-yl)methyl)picolinamide] | C (Increase in comparison with non-treated of 1.2-1.7 fold is shown as C)
7 | O=C(NCc1ccc2c(c1)CCCO2)c1cc(Nc2nccc3ccc(Cl)cc23)ccn1 [Example 19, 4-((7-Chloroisoquinolin-1-yl)amino)-N-(chroman-6-ylmethyl)picolinamide] | C (Increase in comparison with non-treated of 1.2-1.7 fold is shown as C)
8 | Cn1nnc2c(NS(=O)(=O)c3ccc(Nc4nccc5ccc(Cl)cc45)cc3)cccc21 [Example 73, 4-((7-Chloroisoquinolin-1-yl)amino)-N-(1-methyl-1H-benzo[d][1,2,3]triazol-4-yl)benzenesulfonamide] | D
9 | O=S(=O)(NCc1ccc2nsnc2c1)c1ccc(Nc2nccc3ccc(Cl)cc23)cc1 [Example 76, N-(benzo[c][1,2,5]thiadiazol-5-ylmethyl)-4-((7-chloroisoquinolin-1-yl)amino)benzenesulfonamide] | C (Increase in comparison with non-treated of 1.2-1.7 fold is shown as C)
10 | O=C(NCc1ccc2c(c1)OCCCO2)c1ccc(Nc2nccc3ccc(Cl)cc23)cn1 [Example 35, 5-((7-Chloroisoquinolin-1-yl)amino)-N-((3,4-dihydro-2H-benzo[b][1,4]dioxepin-7-yl)methyl)picolinamide] | C (Increase in comparison with non-treated of 1.2-1.7 fold is shown as C)
11 | O=C(NCc1ccc2c(c1)CCCO2)c1ccc(Nc2nccc3ccc(Cl)cc23)cn1 [Example 39, 5-((7-Chloroisoquinolin-1-yl)amino)-N-(chroman-6-ylmethyl)picolinamide] | B (Increase in comparison with non-treated of >1.7-2.5 fold is shown as B)
12 | COc1ccc2c(c1)CCC(NC(=O)c1ccc(Nc3nccc4ccc(OC)cc34)cn1)C2 (centres unmarked) [Example 46, N-(6-methoxy-1,2,3,4-tetrahydronaphthalen-2-yl)-5-((7-methoxyisoquinolin-1-yl)amino)picolinamide] | C (Increase in comparison with non-treated of 1.2-1.7 fold is shown as C)
13 | O=C(NCC(c1cccnc1)N1CCCC1)c1cc(Nc2nccc3ccc(Cl)cc23)ccn1 (centres unmarked) [Example 7, 4-((7-Chloroisoquinolin-1-yl)amino)-N-(2-(pyridin-3-yl)-2-(pyrrolidin-1-yl)ethyl)picolinamide] | C (Increase in comparison with non-treated of 1.2-1.7 fold is shown as C)
14 | COc1cccc(CNC(=O)c2ccc(Nc3nccc4ccc(Cl)cc34)nc2)c1 [Example 57, 6-((7-Chloroisoquinolin-1-yl)amino)-N-(3-methoxybenzyl)nicotinamide] | C (Increase in comparison with non-treated of 1.2-1.7 fold is shown as C)
15 | O=S(=O)(NCc1ccc2nsnc2c1)c1cccc(Nc2nccc3ccc(Cl)cc23)c1 [Example 74, N-(benzo[c][1,2,5]thiadiazol-5-ylmethyl)-3-((7-chloroisoquinolin-1-yl)amino)benzenesulfonamide] | D
16 | Cn1nnc2cc(NC(=O)c3cccc(Nc4nccc5ccc(Cl)cc45)c3)ccc21 [Example 1, 3-((7-Chloroisoquinolin-1-yl)amino)-N-(1-methyl-1H-benzo[d][1,2,3]triazol-5-yl)benzamide] | C (Increase in comparison with non-treated of 1.2-1.7 fold is shown as C)
17 | N#Cc1ccc2ccnc(Nc3ccc(C(=O)NC4CCc5ccccc5C4)nc3)c2c1 (centres unmarked) [Example 48, 5-((7-Cyanoisoquinolin-1-yl)amino)-N-(1,2,3,4-tetrahydronaphthalen-2-yl)picolinamide] | A (Increase in comparison with non-treated of >2.5 fold is shown as A)
18 | O=C(NC1CCc2ccccc2C1)c1ccc(Nc2nccc3ccc(Cl)cc23)cn1 (centres unmarked) [Example 34, 5-((7-Chloroisoquinolin-1-yl)amino)-N-(1,2,3,4-tetrahydronaphthalen-2-yl)picolinamide] | A (Increase in comparison with non-treated of >2.5 fold is shown as A)
19 | O=C(NCCc1ccc2c(c1)OCCO2)c1ccc(Nc2nccc3ccc(Cl)cc23)cn1 [Example 38, 5-((7-Chloroisoquinolin-1-yl)amino)-N-(2-(2,3-dihydrobenzo[b][1,4]dioxin-6-yl)ethyl)picolinamide] | D
20 | O=S(=O)(NCC(c1ccccn1)N1CCOCC1)c1ccc(Nc2nccc3ccc(Cl)cc23)cc1 (centres unmarked) [Example 72, 4-((7-Chloroisoquinolin-1-yl)amino)-N-(2-morpholino-2-(pyridin-2-yl)ethyl)benzenesulfonamide] | D
21 | O=C(NCc1ccccc1)c1ccc(Nc2nccc3ccc(Cl)cc23)cn1 [Example 29, N-benzyl-5-((7-chloroisoquinolin-1-yl)amino)picolinamide] | A (Increase in comparison with non-treated of >2.5 fold is shown as A)
22 | O=C(NCC(c1ccccn1)N1CCOCC1)c1cccc(Nc2nccc3ccc(Cl)cc23)c1 (centres unmarked) [Example 2, 3-((7-Chloroisoquinolin-1-yl)amino)-N-(2-morpholino-2-(pyridin-2-yl)ethyl)benzamide] | C (Increase in comparison with non-treated of 1.2-1.7 fold is shown as C)
23 | O=C(NCc1ccc2c(c1)OCO2)c1ccc(Nc2nccc3ccc(Cl)cc23)nc1 [Example 62, N-(benzo[d][1,3]dioxol-5-ylmethyl)-6-((7-chloroisoquinolin-1-yl)amino)nicotinamide] | D

Reference: patent publication US11440898B2, “Isoquinoline compounds, methods for their preparation, and therapeutic uses thereof in conditions associated with the alteration of the activity of beta galactosidase” (Minoryx Therapeutics S.L., priority 2016, dated 2022)
